Data on ten compounds can be found in article PMC12055039 (Organic & biomolecular chemistry, 2024).

Read-outs that look alike come from different tables or passages of the source.

The subject of data set [1] is L. amazonensis. As to the kind of experiment: Antiparasitic screening against L. amazonensis. Type of data set: cell-based. The settings on record: read-out: L. amazonensis EC50; mean ± standard error, 3 biological replicates.
For the next data set, the system named is P. falciparum 3D7. As to the kind of experiment: Antiparasitic screening against P. falciparum 3D7. The settings on record: read-out: P. falciparum 3D7 EC50; mean ± standard error, 3 biological replicates. The format is cell-based.
For data set [2], the system named is T. brucei. As to the kind of experiment: Antiparasitic screening against T. brucei. The settings on record: read-out: T. brucei EC50; mean ± standard error, 3 biological replicates. Type of data set: cell-based.
Data set [3] has as its system T. brucei. The settings on record: read-out: EC50 (T. brucei); Phase III candidate for trypanosomiasis; cited from earlier work.
The nature of data set [4]: Cytotoxicity against HepG2 cells. The conditions noted are these: human.
Data set [5] concerns L. amazonensis. The settings on record: read-out: L. amazonensis EC50; 6/5-spiroindimicins; ref 4b; cited from earlier work.

Take `COC(=O)c1[nH]c(C(=O)OC)c2c1-c1c([nH]c3ccc(Cl)cc13)[C@@]21CN(C)c2ccc(Cl)cc21` (racemic) [Compound 4, spiroindimicin D]: the EC50 (usually the concentration giving half of the maximal effect) was 7.7 ± 0.23 µM with L. amazonensis [1], 5.6 ± 0.22 µM in the data set with P. falciparum 3D7 and 3.4 ± 0.21 µM in the data set on T. brucei [2].
`COC(=O)c1[nH]cc2c1[C@@]1(CN(C)c3ccccc31)c1[nH]c3ccc(Cl)cc3c1-2` (racemic) [Compound 6, spiroindimicin F]: the EC50 in the data set with L. amazonensis [1] worked out at 9.9 ± 1.2 µM; in the data set with P. falciparum 3D7, 9 ± 0.97 µM; in the data set with T. brucei [2], 4 ± 0.2 µM.
On the same counts, the results for spiroindimicin G [Compound 7] are 8.1 ± 0.5 µM, 7.6 ± 0.47 µM and 0.65 ± 0.14 µM.
Turning to `CC1(C)OB(O)c2cc(NC(=O)c3ccc(F)cc3C(F)(F)F)ccc21` [acoziborole], the EC50 in the data set on T. brucei [3] was 0.6 µM.
Regarding `COC(=O)c1[nH]cc2c1[C@@]1(CN(C)c3ccc(Cl)cc31)c1[nH]c3ccccc3c1-2` (racemic) [Compound 5, spiroindimicin E], the figures for the concentration for a half-maximal effect (EC50) in the data set on L. amazonensis [1], in the data set with P. falciparum 3D7 and in the data set with T. brucei [2] were 9.3 ± 1.7 µM, 4.8 ± 0.51 µM and 4.4 ± 0.32 µM, respectively.
As for N-PMB spiroindimicin C [Compound 74], the EC50 is above 10 µM in the data set with L. amazonensis [1], 3.7 ± 0.35 µM with P. falciparum 3D7 and 1.2 ± 0.03 µM with T. brucei [2].
For `C[C@H]1CCC/C=C/[C@@H]2C[C@H](O)C[C@H]2[C@H](O)/C=C/C(=O)O1` [brefeldin A], the CC50 – broadly, the concentration that lowers cell viability or growth by half – in data set [4] is 0.064 ± 0.0045 µM.
With `COC(=O)c1[nH]cc2c1[C@]1(CNc3ccc(Cl)cc31)c1[nH]c3ccc(Cl)cc3c1-2` (racemic) [Compound 3, spiroindimicin C], the EC50 in the data set with L. amazonensis [1] is above 10 µM; with P. falciparum 3D7, 7.1 ± 0.58 µM; with T. brucei [2], 13 ± 0.98 µM.
As to `COC(=O)c1[nH]c(C(=O)OC)c2c1-c1c[nH]c3ccc(Cl)c(c13)[C@@]21C=Nc2ccc(Cl)cc21` [Compound 1, spiroindimicin A], the EC50 in the data set with L. amazonensis [5] is 1.3 µM.
Regarding `COC(=O)c1[nH]cc2c1[C@]1(CN(C)c3ccc(Cl)cc31)c1[nH]c3ccc(Cl)cc3c1-2` (racemic) [Compound 2, spiroindimicin B], the concentration giving a half-maximal response (EC50) in the data set with L. amazonensis [1] was found to be 8 ± 0.49 µM; in the data set on P. falciparum 3D7, 3 ± 0.2 µM; in the data set with T. brucei [2], 3 ± 0.23 µM.
